Assay results taken from patent US5621010A, “Urea derivatives and their use as ACAT inhibitors” (Nisshin Flour Milling Co., Ltd., priority 1993, dated 1997).

Experiments:
[1] = system: ACAT (liver microsome fractions of male rabbits); experiment: ACAT inhibitory activity: formation of labelled cholesteryl esters from [1-14C]oleoyl-CoA and endogenous cholesterol; format: biochemical, rabbit; conditions: compound added at 10^-7 M
Protocol: The enzyme preparation, ACAT was prepared from liver microsme fractions of male rabbits according to the method of E. E. Largis et al. (Journal of Lipid Research, Vol. 30, pages 681-690, 1989). The activity was calculated by assaying the amount of the labelled cholesteryl esters formed from [1-^14 C]oleoyl-CoA and endogenous cholesterol according to the method of Kazuichi NATORI et al. (Japan J. Pharmacol., Vol. 42, pages 517-523, 1986).
The result is shown in Table 1, in which percent inhibition of the formation of the labelled cholesteryl esters with a compound added at 10^-7 M is indicated as index for the ACAT inhibitory activity.

Human LDL = experiment: Antioxidative activity: inhibition of MDA formation from LDL incubated with cupric sulfate; format: biochemical; conditions: compound 10^-5 M; cupric sulfate 5×10^-6 M; 5 hrs; compared with control
Protocol: Human LDL was incubated in the presence of cupric sulfate (5×10^-6 M) and in the presence or absence of a compound (10^-5 M) for 5 hrs. After the incubation, the peroxidation of low-density lipoproteins (LDL) is evaluated by the formation of malondialdehyde (MDA), which is a sort of lipid peroxides according to the method of Simon J. T. Mao et al. (J. Med. Chem., Vol. 34, pages 298-302, 1991). Activity of the compound is shown by percent inhibition of the MDA formation as compared with control.

SMILES | ACAT Inhibition [1] [%] | Antioxidant Activity (percent inhibition of the MDA formation) (Human LDL) [%]
CC(C)(C)c1cc(/C=C/c2ccccc2NC(=O)N2CCC[C@H]3CCCC[C@H]32)cc(C(C)(C)C)c1O (relative stereo) [Example 159] | 97 | –
CC(C)(C)c1cc(CCc2cc(F)cc(F)c2NC(=O)N2CCC[C@H]3CCCC[C@H]32)cc(C(C)(C)C)c1O (relative stereo) [Example 166] | 100 | –
CCCCCCOc1ccc(NC(=O)Nc2ccccc2CCc2cc(C(C)(C)C)c(O)c(C(C)(C)C)c2)cc1 [Example 1, N-[2-(3,5-di-tert-butyl-4-hydroxyphenethyl)phenyl]-N'-(4-hexyloxyphenyl)urea] | 83 | 94
CC(C)(C)c1cc(CCc2ccccc2NC(=O)NC2CCCCCC2)cc(C(C)(C)C)c1O [Example 4, N-[2-(3,5-di-tert-butyl-4-hydroxyphenethyl)phenyl]-N'-cycloheptylurea] | 95 | 98
CC(C)(C)c1cc(CCc2ccccc2NC(=O)NCCc2ccccc2)cc(C(C)(C)C)c1O [Example 5, N-[2-(3,5-di-tert-butyl-4-hydroxyphenethyl)phenyl]-N'-phenethylurea] | 89 | 100
CC(C)(C)c1cc(CCc2ccccc2NC(=O)NCC(c2ccccc2)c2ccccc2)cc(C(C)(C)C)c1O [Example 6, N-[2-(3,5-di-tert-butyl-4-hydroxyphenethyl)phenyl]-N'-(2,2-diphenylethyl)urea] | 99 | 98
CCCCCCCNC(=O)Nc1ccccc1CCc1cc(C(C)(C)C)c(O)c(C(C)(C)C)c1 [Example 12, N-[2-(3,5-di-tert-butyl-4-hydroxyphenethyl)phenyl]-N'-heptylurea] | 91 | 94
CC(C)=CCCC(C)=CCNC(=O)Nc1ccccc1CCc1cc(C(C)(C)C)c(O)c(C(C)(C)C)c1 [Example 13, N-[2-(3,5-di-tert-butyl-4-hydroxyphenethyl)phenyl]-N'-(3,7-dimethyl-2,6-octadienyl)urea] | 90 | 92
CC(C)(C)CC(C)(C)NC(=O)Nc1ccccc1CCc1cc(C(C)(C)C)c(O)c(C(C)(C)C)c1 [Example 14, N-[2-(3,5-di-tert-butyl-4-hydroxyphenethyl)phenyl]-N'-(2,4,4-trimethyl-2-pentyl)urea] | 93 | 98
CCOCCCNC(=O)Nc1ccccc1CCc1cc(C(C)(C)C)c(O)c(C(C)(C)C)c1 [Example 15, N-[2-(3,5-di-tert-butyl-4-hydroxyphenethyl)phenyl]-N'-(3-ethoxypropyl)urea] | 76 | 99
CC(C)(C)c1cc(CCc2ccccc2NC(=O)NC2CCCC2)cc(C(C)(C)C)c1O [Example 16, N-[2-(3,5-di-tert-butyl-4-hydroxyphenethyl)phenyl]-N'-cyclopentylurea] | 93 | 95
CC(C)(C)c1cc(CCc2ccccc2NC(=O)NC2CCCCC2)cc(C(C)(C)C)c1O [Example 17, N-[2-(3,5-di-tert-butyl-4-hydroxyphenethyl)phenyl]-N'-cyclohexylurea] | 92 | 99
CC(C)(C)c1cc(CCc2ccccc2NC(=O)NC2CCCCCCC2)cc(C(C)(C)C)c1O [Example 18, N-[2-(3,5-di-tert-butyl-4-hydroxyphenethyl)phenyl]-N'-cyclooctylurea] | 97 | 97
CC(C)(C)c1cc(CCc2ccccc2NC(=O)NC(c2ccccc2)c2ccccc2)cc(C(C)(C)C)c1O [Example 29, N-[2-(3,5-di-tert-butyl-4-hydroxyphenethyl)phenyl]-N'-diphenylmethylurea] | 99 | 95
CC(C)(C)c1cc(CCc2ccccc2NC(=O)NCc2ccco2)cc(C(C)(C)C)c1O [Example 30, N-[2-(3,5-di-tert-butyl-4-hydroxyphenethyl)phenyl]-N'-[(2-furyl)methyl]urea] | 84 | 92
CCSCCNC(=O)Nc1ccccc1CCc1cc(C(C)(C)C)c(O)c(C(C)(C)C)c1 [Example 38, N-[2-(3,5-di-tert-butyl-4-hydroxyphenethyl)phenyl]-N'-(2-ethylthioethyl)urea] | 71 | 94

SMILES | ACAT Inhibition [1] [%] | Antioxidant Activity (percent inhibition of the MDA formation) (Human LDL) [%]
CN1CC2CC(NC(=O)Nc3ccccc3CCc3cc(C(C)(C)C)c(O)c(C(C)(C)C)c3)CC(C1)N2C (stereo not shown) [Example 39, N-[2-(3,5-di-tert-butyl-4-hydroxyphenethyl)phenyl]-N'-(3,9-dimethyl-3,9-diazabicyclo[3.3.1]-7-nonyl)urea] | 88 | 87
CCCCCCCN(Cc1ccccc1)C(=O)Nc1ccccc1CCc1cc(C(C)(C)C)c(O)c(C(C)(C)C)c1 [Example 40, N-[2-(3,5-di-tert-butyl-4-hydroxyphenethyl)phenyl]-N'-benzyl-N'-heptylurea] | 96 | 98
CCCCCCCN(C)C(=O)Nc1ccccc1CCc1cc(C(C)(C)C)c(O)c(C(C)(C)C)c1 [Example 41, N-[2-(3,5-di-tert-butyl-4-hydroxyphenethyl)phenyl]-N'-heptyl-N'-methylurea] | 97 | 99
CC(C)(C)c1cc(CCc2ccccc2NC(=O)N(Cc2ccccc2)Cc2ccccc2)cc(C(C)(C)C)c1O [Example 42, N-[2-(3,5-di-tert-butyl-4-hydroxyphenethyl)phenyl]-N',N'-dibenzylurea] | 95 | 97
CC(C)(C)c1cc(CCc2ccccc2NC(=O)NCC(C)(C)c2ccc(F)cc2)cc(C(C)(C)C)c1O [Example 140, N-[2-(3,5-di-tert-butyl-4-hydroxyphenethyl)phenyl]-N'-[2-(4-fluorophenyl)-2-methylpropyl]urea] | 96 | –
CC(C)(C)c1cc(CCc2ccccc2NC(=O)NCC(C)(C)c2ccc(N3CCCC3)cc2)cc(C(C)(C)C)c1O [Example 141, N-[2-(3,5-di-tert-butyl-4-hydroxyphenethyl)phenyl]-N'-[2-[4-(1-pyrrolidinyl)phenyl]-2-methylpropyl]urea] | 86 | –
CCCN(C(=O)Nc1ccccc1CCc1cc(C(C)(C)C)c(O)c(C(C)(C)C)c1)C1CCN(Cc2ccccc2)CC1 [Example 146, N-[2-(3,5-di-tert-butyl-4-hydroxyphenethyl)phenyl]-N'-(1-benzyl-4-piperidyl)-N'-propylurea] | 85 | –
CC(C)(C)c1cc(CCc2c(F)cccc2NC(=O)NC2CCN(Cc3ccccc3)CC2)cc(C(C)(C)C)c1O [Example 155, N-[2-(3,5-di-tert-butyl-4-hydroxyphenethyl)-3-fluorophenyl]-N'-(1-benzyl-4-piperidyl)urea] | 94 | –
COc1cccc(CCc2cc(C(C)(C)C)c(O)c(C(C)(C)C)c2)c1NC(=O)NC1CCN(Cc2ccccc2)CC1 [Example 163, N-[2-(3,5-di-tert-butyl-4-hydroxyphenethyl)-6-methoxyphenyl]-N'-(1-benzyl-4-piperidyl)urea] | 81 | –
CN(C(=O)Nc1c(F)cc(F)cc1CCc1cc(C(C)(C)C)c(O)c(C(C)(C)C)c1)C1CCN(Cc2ccccc2)CC1 [Example 165, N-[2-(3,5-di-tert-butyl-4-hydroxyphenethyl)-4,6-difluorophenyl]-N'-(1-benzyl-4-piperidyl)-N'-methylurea] | 99 | –
CC(C)(C)c1cc(CCc2cc(F)cc(F)c2NC(=O)NC2CCN(Cc3ccccc3)CC2)cc(C(C)(C)C)c1O.Cl [Example 167, N-[2-(3,5-di-tert-butyl-4-hydroxyphenethyl)-4,6-difluorophenyl]-N'-(1-benzyl-4-piperidyl)urea hydrochloride] | 100 | –
Cc1cccc(CCc2cc(C(C)(C)C)c(O)c(C(C)(C)C)c2)c1NC(=O)NC1CCN(Cc2ccccc2)CC1 [Example 168, N-[2-(3,5-di-tert-butyl-4-hydroxyphenethyl)-6-methylphenyl]-N'-(1-benzyl-4-piperidyl)urea] | 93 | –
CC(C)(C)c1cc(CCc2ccccc2NC(=O)N[C@H](C(=O)OCc2ccccc2)c2ccccc2)cc(C(C)(C)C)c1O [Example 173, (S)-N-[2-(3,5-di-tert-butyl-4-hydroxyphenethyl)phenyl]-N'-(α-benzyloxycarbonyl)benzylurea] | 95 | –
CC1(C)CCCN(C(=O)Nc2ccccc2CCc2cc(C(C)(C)C)c(O)c(C(C)(C)C)c2)C1 [Example 177, 1-[N-[2-(3,5-di-tert-butyl-4-hydroxyphenethyl)phenyl]carbamoyl]-3,3-dimethylpiperidine] | 98 | –
CC(C)(C)c1cc(CCc2ccc(Cl)cc2NC(=O)NC2CCN(Cc3ccccc3)CC2)cc(C(C)(C)C)c1O [Example 183, N-[2-(3,5-di-tert-butyl-4-hydroxyphenethyl)-5-chlorophenyl]-N'-(1-benzyl-4-piperidyl)urea] | 91 | –
